Values after ≈ are worked out from the molar mass of the structure shown.
Key:
Enterococcus sp. = experiment: In vitro antibacterial evaluation: minimum inhibitory concentration (MIC), broth dilution method; assay type: cell-based; conditions: broth dilution, 18 hours at 35° C.
How it was run: (§1)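 MIC by broth dilution in Mueller-Hinton II medium following NCCLS M7-A2. Inoculum was 5×10^5 CFU/mL and antibiotic was tested over 64-0.06 μg/mL. Gram-positive panel included clinical isolates resistant to methicillin, penicillin and/or vancomycin.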

Escherichia coli = experiment: as above; assay type: cell-based; conditions: 5×10^5 CFU/mL, 18 hours at 35° C.
How it was run: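 NCCLS M7-A2 broth dilution; Muller-Hinton II […]; 5×10^5 CFU/mL; 64-0.06 μg/mL. MIC = lowest concentration with no growth.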

Staphylococcus sp. = experiment: as above; assay type: cell-based; conditions: for MIC Staphylococcus aureus (ATCC 29213): strain ATCC 29213; for MIC Staphylococcus aureus (GC 3051): strain GC 3051; for MIC Staphylococcus aureus (GC 3053): strain GC 3053; for MIC Staphylococcus aureus (GC 4541): strain GC 4541; for MIC Staphylococcus aureus (GC 4542): strain GC 4542; for MIC Staphylococcus aureus (GC 4545): strain GC 4545; for MIC Staphylococcus haemolyticus (GC 4546): strain GC 4546; for MIC Coagulase Negative Staphylococcus (GC 4547): strain GC 4547; for MIC Coagulase Negative Staphylococcus (GC 4548): strain GC 4548; for MIC Coagulase Negative Staphylococcus (GC 4549): strain GC 4549; for MIC Coagulase Negative Staphylococcus (GC 4551): strain GC 4551; for MIC Coagulase Negative Staphylococcus (GC 6257): strain GC 6257
How it was run: as §1

Streptococcus sp. = experiment: as above; assay type: cell-based; conditions: broth dilution, 18 hours at 35° C.
How it was run: as §1

[1] = test system: Enterococcus faecalis (GC 6189), vancomycin resistant strain; experiment: Acute lethal infection in mice (ED50); assay type: in vivo; conditions: female CD-1 mice, intraperitoneal challenge, intravenous dose 30 min. after infection, 7 day survival ratios
How it was run: (§2)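 Female CD-1 mice (20 ± 1-2 g) were infected intraperitoneally with enough bacteria, suspended in Trypticase Soy Broth or hog gastric mucin, to kill untreated controls within 24-48 hr. Compound in saline or 5% dextrose was given intravenously 30 min after infection. ED50 came from pooled 7-day survival over 3 tests.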

[2] = test system: Staphylococcus aureus-SMITH (GC 4543); experiment: Acute lethal infection in mice (ED50); assay type: in vivo; conditions: female CD-1 mice, intraperitoneal challenge, intravenous dose 30 min. after infection, 7 day survival ratios
How it was run: as §2

[3] = test system: Streptococcus pneumoniae (GC 1894), penicillin resistant strain; experiment: Acute lethal infection in mice (ED50); assay type: in vivo; conditions: female CD-1 mice, intraperitoneal challenge, intravenous dose 30 min. after infection, 7 day survival ratios
How it was run: as §2

[4] = assay type: in vivo; conditions: mice, 20 mg/kg intravenously daily for 9 days, serum on day 10
Protocol: 20-day-old CD-1 mice were divided into a vehicle control group (5 mice) and a treatment group (5 mice). Samples of glycopeptide antibiotics were administered at 20 mg/kg intravenously daily for 9 days. Animals were necropsied on day 10 Sera were analyzed for BUN (blood urea nitrogen), creatinine, AST (aspartic aminotransferase), and ALT (alanine aminotransferase) by routine, standard, automated methods using an Hitachi 747 chemistry analyzer.

[5] = Anatomic pathology (heart and kidney histopathology) in mice; assay type: in vivo, CD-1 mice; conditions: 20 mg/kg intravenously daily for 9 days, microscopic histopathology on day 10
How it was run: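 Juvenile CD-1 mice (20 days old; 5 vehicle, 5 treated) received glycopeptide antibiotic 20 mg/kg i.v. daily for 9 days. Necropsied tissues formalin-fixed, paraffin-embedded, H&E stained and examined microscopically; findings graded slight to severe versus controls.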

[6] = broth dilution, 18 hours at 35° C.

With `CC(c1ccccc1)C1NC(=O)CNC(=O)C(CO)NC(=O)C(C(O)C2CNC(=N)N2C2OC(CO)C(O)C(O)C2O)NC(=O)C(C(O)C2CNC(=N)N2)NC(=O)C(Cc2ccc(OC3OC(CO)C(OC4OC5COC6(OC5C(O)C4O)C4CC5CC(C4)CC6C5)C(O)C3O)cc2)NC1=O` (stereo not drawn) [Example 105, Cyclo[glycyl-β-methylphenylalanyl-O-[4-O-[4,6-O-(2-adamantylidene)hexopyranosyl]hexopyranosyl]tyrosyl-3-(2-iminoimidazolidin-4-yl)seryl-3-(3-hexopyranosyl-2-iminoimidazoliclin-4-yl)serylseryl]] the “MIC Enterococcus avium (GC 4558)” value (Enterococcus sp.; Enterococcus avium (GC 4558)) was 1 to 2 µg/mL, the “MIC Enterococcus faecalis (ATCC 29212)” value (Enterococcus sp.; Enterococcus faecalis (ATCC 29212)) was 1 to 2 µg/mL and the “MIC Enterococcus faecalis (GC 2242)” value (Enterococcus sp.; Enterococcus faecalis (GC 2242)) was 0.5 to 2 µg/mL. The “MIC Enterococcus faecalis (GC 2691)” value (Enterococcus sp.; Enterococcus faecalis (GC 2691)) was 1 to 2 µg/mL, the “MIC Enterococcus faecalis (GC 3059)” value (Enterococcus sp.; Enterococcus faecalis (GC 3059)) was 1 to 2 µg/mL and the “MIC Enterococcus faecalis (GC 4552)” value (Enterococcus sp.; Enterococcus faecalis (GC 4552)) was 1 to 2 µg/mL. The “MIC Enterococcus faecalis (GC 4553)” value (Enterococcus sp.; Enterococcus faecalis (GC 4553)) was 1 to 2 µg/mL, the “MIC Enterococcus faecalis (GC 4554)” value (Enterococcus sp.; Enterococcus faecalis (GC 4554)) was 1 to 2 µg/mL and the “MIC Enterococcus faecalis (GC 6189)” value (Enterococcus sp.; Enterococcus faecalis (GC 6189)) was 1 to 2 µg/mL. The “MIC Enterococcus faecium (GC 2243)” value (Enterococcus sp.; Enterococcus faecium (GC 2243)) was 1 to 2 µg/mL, the “MIC Enterococcus faecium (GC 4556)” value (Enterococcus sp.; Enterococcus faecium (GC 4556)) was 0.5 to 2 µg/mL and the “MIC Enterococcus faecium (GC 4557)” value (Enterococcus sp.; Enterococcus faecium (GC 4557)) was 1 to 2 µg/mL. For the same compound, the “MIC Enterococccus avium (GC 4558)” value (Enterococcus sp.; 5×10^5 CFU/mL) was 1 to 2 µg/mL, the “MIC Enterococccus faecalis (ATCC 29212)” value (Enterococcus sp.; 5×10^5 CFU/mL) was 1 to 2 µg/mL and the “MIC Enterococccus faecalis (GC 2691)” value (Enterococcus sp.; 5×10^5 CFU/mL) was 1 to 2 µg/mL. The “MIC Enterococccus faecalis (GC 3059)” value (Enterococcus sp.; 5×10^5 CFU/mL) was 1 to 2 µg/mL, the “MIC Enterococccus faecalis (GC 4552)” value (Enterococcus sp.; 5×10^5 CFU/mL) was 1 to 2 µg/mL and the “MIC Enterococccus faecalis (GC 4553)” value (Enterococcus sp.; 5×10^5 CFU/mL) was 1 to 2 µg/mL. For the same compound, the “MIC Enterococccus faecalis (GC 4554)” value (Enterococcus sp.; 5×10^5 CFU/mL) was 1 to 2 µg/mL, the “MIC Enterococccus faecalis (GC 6189)” value (Enterococcus sp.; 5×10^5 CFU/mL) was 1 to 2 µg/mL and the “MIC Enterococccus faecium (GC 2243)” value (Enterococcus sp.; 5×10^5 CFU/mL) was 1 to 2 µg/mL. For the same compound, the “MIC Enterococccus faecium (GC 4556)” value (Enterococcus sp.; 5×10^5 CFU/mL) was 0.5 to 2 µg/mL, the “MIC Enterococccus faecium (GC 4557)” value (Enterococcus sp.; 5×10^5 CFU/mL) was 1 to 2 µg/mL and the “MIC Enterococcus faecalis (GC 2242)” value (Enterococcus sp.; 5×10^5 CFU/mL) was 0.5 to 2 µg/mL. For the same compound, the “MIC Escherichia coli (ATCC 25922)” value (Escherichia coli) was 16 to 32 µg/mL, the “MIC Escherichia coli (GC 4559)” value (Escherichia coli) was 32 µg/mL (≈ 22.4 µM) and the “MIC Escherichia coli (GC 4560)” value (Escherichia coli) was 0.5 to 2 µg/mL. The “MIC Staphylococcus aureus (ATCC 29213)” value (Staphylococcus sp.) was less than 0.5 to 1 µg/mL, the “MIC Staphylococcus aureus (ATCC 29213)” value (Staphylococcus sp.; [6]) was less than 0.5 to 1 µg/mL and the “MIC Staphylococcus aureus (GC 3051)” value (Staphylococcus sp.) was 0.5 to 1 µg/mL. The “MIC Staphylococcus aureus (GC 3051)” value (Staphylococcus sp.; [6]) was 0.5 to 1 µg/mL, the “MIC Staphylococcus aureus (GC 3053)” value (Staphylococcus sp.) was 1 to 2 µg/mL and the “MIC Staphylococcus aureus (GC 3053)” value (Staphylococcus sp.; [6]) was 1 to 2 µg/mL. The “MIC Staphylococcus aureus (GC 4541)” value (Staphylococcus sp.) was less than 0.5 to 1 µg/mL, the “MIC Staphylococcus aureus (GC 4541)” value (Staphylococcus sp.; [6]) was less than 0.5 to 1 µg/mL and the “MIC Staphylococcus aureus (GC 4542)” value (Staphylococcus sp.) was 0.5 to 1 µg/mL. The “MIC Staphylococcus aureus (GC 4542)” value (Staphylococcus sp.; [6]) was 0.5 to 1 µg/mL, the “MIC Staphylococcus aureus (GC 4545)” value (Staphylococcus sp.) was less than 0.5 to 1 µg/mL and the “MIC Staphylococcus aureus (GC 4545)” value (Staphylococcus sp.; [6]) was less than 0.5 to 1 µg/mL. The “MIC Staphylococcus haemolyticus (GC 4546)” value (Staphylococcus sp.) was less than 0.5 to 1 µg/mL, the “MIC Staphylococcus haemolyticus (GC 4546)” value (Staphylococcus sp.; [6]) was less than 0.5 to 1 µg/mL and the “MIC Coagulase Negative Staphylococcus (GC 4547)” value (Staphylococcus sp.) was 0.5 to 1 µg/mL. The “MIC Coagulase Negative Staphylococcus (GC 4547)” value (Staphylococcus sp.; [6]) was 0.5 to 1 µg/mL, the “MIC Coagulase Negative Staphylococcus (GC 4548)” value (Staphylococcus sp.) was less than 0.5 to 1 µg/mL and the “MIC Coagulase Negative Staphylococcus (GC 4548)” value (Staphylococcus sp.; [6]) was less than 0.5 to 1 µg/mL. For the same compound, the “MIC Coagulase Negative Staphylococcus (GC 4549)” value (Staphylococcus sp.) was 0.5 to 1 µg/mL, the “MIC Coagulase Negative Staphylococcus (GC 4549)” value (Staphylococcus sp.; [6]) was 0.5 to 1 µg/mL and the “MIC Coagulase Negative Staphylococcus (GC 4551)” value (Staphylococcus sp.) was less than 0.5 to 1 µg/mL. The “MIC Coagulase Negative Staphylococcus (GC 4551)” value (Staphylococcus sp.; [6]) was less than 0.5 to 1 µg/mL, the “MIC Coagulase Negative Staphylococcus (GC 6257)” value (Staphylococcus sp.) was 0.5 to 1 µg/mL and the “MIC Coagulase Negative Staphylococcus (GC 6257)” value (Staphylococcus sp.; [6]) was 0.5 to 1 µg/mL. For the same compound, the “MIC Streptococcus agalactiae (GC 4564)” value (Streptococcus sp.; Streptococcus agalactiae (GC 4564)) was less than 0.06 to 0.25 µg/mL, the “MIC Streptococcus pneumoniae (ATCC 6301)” value (Streptococcus sp.; Streptococcus pneumoniae (ATCC 6301)) was less than 0.06 µg/mL and the “MIC Streptococcus pneumoniae (GC 1894)” value (Streptococcus sp.; Streptococcus pneumoniae (GC 1894)) was less than 0.06 µg/mL. For the same compound, the “MIC Streptococcus pneumoniae (GC 4565)” value (Streptococcus sp.; Streptococcus pneumoniae (GC 4565)) was less than 0.06 µg/mL, the “MIC Streptococcus pyogenes (GC 4563)” value (Streptococcus sp.; Streptococcus pyogenes (GC 4563)) was less than 0.06 to 0.12 µg/mL and the “MIC Streptococcus agalactiae (GC 4564)” value (Streptococcus sp.; 5×10^5 CFU/mL) was less than 0.06 to 0.25 µg/mL. The “MIC Streptococcus pneumoniae (GC 1894)” value (Streptococcus sp.; 5×10^5 CFU/mL) was less than 0.06 µg/mL, the “MIC Streptococcus pneumoniae (GC 4565)” value (Streptococcus sp.; 5×10^5 CFU/mL) was less than 0.06 µg/mL and the “MIC Streptococcus pneumonine (ATCC 6301)” value (Streptococcus sp.; 5×10^5 CFU/mL) was less than 0.06 µg/mL. The “MIC Streptococcus pyogenes (GC 4563)” value (Streptococcus sp.; 5×10^5 CFU/mL) was less than 0.06 to 0.12 µg/mL, the “median effective dose (ED50), Enterococcus faecalis (GC 6189)” value [1] was 1.8-1.96 and the “median effective dose (ED50), Staphylococcus aureus-SMITH (GC 4543)” value [2] was 0.04-0.08. For the same compound, the median effective dose (ED50), Streptococcus pneumoniae (GC 1894) [3] was 0.04 mg/kg, the “Clinical Chemistry (Day 10) % of Control, ALT” value [4] was “+480%” and the “Clinical Chemistry (Day 10) % of Control, AST” value [4] was “+205%”. The “Clinical Chemistry (Day 10) % of Control, BUN” value [4] was “+35%”, the “Anatomical Pathology (Day 10), Heart” value [5] was “+++” and the “Anatomical Pathology (Day 10), Kidney” value [5] was “+++”.

Reference: patent publication US8247211B2, “Glycopeptide antibiotics” (American Cyanamid Company, priority 2001, dated 2012)
